Test results taken from patent US12551498B2, “Treatment of P53-deficient cancers” (Health Research, Inc., priority 2019, dated 2026).
“And” between values parts separate entries of the source, which are not always exact repeats. Identical values can stand only once. “Also recorded” adds a separate entry of the source. Like-named read-outs stand apart in the source and are kept apart here.

Assays:
[1] = system: γH2AX in MCF10A cells; assay: DNA damage marker γH2AX, p53wt MCF10A; type: cell-based, human
Protocol: (§1) Cells were grown on glass coverslips (22×22 mm) and treated with inhibitors for various times, then fixed with 4% PFA and permeabilized with 0.05% Triton X-100. For γH2AX staining samples were blocked with 3% milk in PBS for 30 min at room temperature (RT), and then incubated for 1 h with antibodies to γH2AX (1:400) in 1% milk/PBS followed by incubation with Texas red-conjugated secondary antibody (1:500) for 30 min at RT. For evaluation of genomic EdU, cells were grown on glass coverslips, and then pulse-labeled with EdUrd as described for flow cytometry. Cells were fixed at various times with 4% PFA and permeabilized with 0.05% Triton X-100, and then EdU was labeled with Cy3 azide using ‘click-it’ reaction as described above. DNA was labeled with Hoechst 33342 before mounting on glass slides. Fluorescence images were taken with a Plan Apochromat 60×/1.40 NA oil objective at ambient temperature using Nikon TE2000-E inverted microscope equipped with a charge-coupled device camera (CoolSNAP HQ; Photometrics). The images were acquired using MetaVue imaging software (v7.7.3, Molecular Devices). Experiments were repeated twice with representative images shown.
(§2) Immunoblotting: Tumor cells were seeded in a 6-well plate at 300,000 cells/well and treated with various reagents. Whole-cell lysates were prepared using NP40 lysis buffer containing PMSF, Na-Orthovanadate, and protease inhibitor cocktail. Snap-frozen tumor tissues were ground and suspended in NP40 lysis buffer. Protein concentrations in lysates were quantitated and 15 μg of protein/lane were resolved on a 10% SDS-PAGE gel. Proteins were transferred onto a nitrocellulose membrane in 10% Methanol-SDS buffer and probed with appropriate antibodies. ECL reagent was used to visualize immune-complexes on radiographic films.

[2] = system: γH2AX in p53mt MDA-MB-231 cells; assay: DNA damage marker γH2AX, p53mt cancer cells; type: cell-based, human; settings: p53mt / p53-deficient cells
Protocol: as §1
Immunoblotting: Tumor cells were seeded in a 6-well plate at 300,000 cells/well and treated with various reagents. […] Protein concentrations in lysates were quantitated and 15 μg of protein/lane were resolved on a 10% SDS-PAGE gel. […]

[3] = system: MDA-MB-231 cells; assay: Cytotoxicity assay (methylene blue), MDA-MB-231; type: cell-based, human; settings: single agent, read-out: IC50, cytotoxicity, drug alone
Protocol: (§3) Cells were plated at a density of 5,000 cells/well in a 96 well-plate and then treated with the appropriate drugs at varying concentrations for 24 hours. Media was replenished with media with or without PARP inhibitors and cell were incubated for 96 hours. Cells were stained with 1% Methylene Blue for 30 minutes, rinsed with water, dried and then solubilized in 5% SDS in PBS, and read at 650 nm. IC50 values were generated using GraphPad Prism8 (Version 8.4.2).
(§4) Cytotoxicity Assay: Cells were plated at a density of 5,000 cells/well in a 96 well-plate and then treated with the appropriate drugs at varying concentrations for 24 hours. Media was replenished with media with or without PARP inhibitors and cell were incubated for 96 hours. Cells were stained with 1% Methylene Blue for 30 minutes, rinsed with water, dried and then solubilized in 5% SDS in PBS, and read at 650 nm. IC50 values were generated using GraphPad Prism8 (Version 8.4.2).

[4] = Cytotoxicity assay (methylene blue), MCF10A; type: cell-based, human; settings: human, MCF10A cells (p53wt), single agent, read-out: IC50, cytotoxicity, drug alone
Protocol: as §3, §4

[5] = system: p53-p21 signaling in MCF10A cells; assay: p53-p21 signaling immunoblot, MCF10A; type: cell-based, human; settings: for p53-p21 signaling response: MCF10A (p53wt)
Protocol: as §2

[6] = system: MDA-MB-231 cells; assay: EdU-removal assay / genomic EdU, MDA-MB-231; type: cell-based, human
Protocol: (§5) All samples were analyzed on an LSRFortessa Cytometer (BD Biosciences) running FACSDiva (Version 6.1.3), and the data were processed using FCS Express 7 (Version 7.04.0016). For the EdUrd pulse experiments, 300,000 cells per well were seeded in a 6-well plate, and the following day media was replaced with base media containing 5% dialyzed FBS. Cells were then incubated with 10 μM EdUrd for two hours, while untreated cells served as the negative control. Following the two-hour pulse, cells were washed twice with DPBS and the media was replenished. Collection of cells began at t=0 hr up to t=72 hr post EdUrd-pulse. Cells were collected using standard trypsinization, washed in 1% BSA in DPBS, and fixed in 4% paraformaldehyde for 15 minutes. Cells underwent two more washes in 1% BSA/DPBS before being permeabilized in 1× saponin buffer. […] Samples were sorted using a BD LSRFortessa cytometer running FACSDiva (Version 6.1.3), and the data were analyzed using ModFit Lt software (Version 5.0.9). […]
(§6) Cells were grown on glass coverslips (22×22 mm) and treated with inhibitors for various times, then fixed with 4% PFA and permeabilized with 0.05% Triton X-100. […] Fluorescence images were taken with a Plan Apochromat 60×/1.40 NA oil objective at ambient temperature using Nikon TE2000-E inverted microscope equipped with a charge-coupled device camera (CoolSNAP HQ; Photometrics). […]

[7] = system: MDA-MB-231 cells; assay: Cell cycle analysis by flow cytometry, p53mt cancer cells; type: cell-based, human
Protocol: as §5
(§7) Flow cytometry: All samples were analyzed on an LSRFortessa Cytometer (BD Biosciences) running FACSDiva (Version 6.1.3), and the data were processed using FCS Express 7 (Version 7.04.0016). […] Samples were sorted using a BD LSRFortessa cytometer running FACSDiva (Version 6.1.3), and the data were analyzed using ModFit Lt software (Version 5.0.9). […]

[8] = system: PARylation activity in MCF10A and MDA-MB-231 cells; assay: Inhibition of PARylation activity in cell culture (immunoblot); type: cell-based, human; settings: 24 hrs
Protocol: as §2

[9] = system: p53-deficient cancer cell lines; assay: Cytotoxicity assay, p53-deficient (p53mt) cancer cell lines; type: cell-based, human
Protocol: as §3, §4

[10] = system: BRCA1-deficient cell lines; settings: cited from earlier work
[11] = system: MCF10A cells; assay: EdU-removal assay, MCF10A; type: cell-based, human; settings: 0.5 μM Olaparib after 2 hr EdU pulse
Protocol: as §5, §6

[12] = system: p53-p21 signaling in MDA-MB-231 cells; assay: p53-p21 signaling immunoblot, MDA-MB-231; type: cell-based, human; settings: MDA-MB-231 (p53mt)
Protocol: as §2

[13] = system: MCF10A cells; assay: Cytotoxicity assay (methylene blue), MCF10A; type: cell-based, human; settings: MCF10A (p53wt), single agent; read-out: IC50, cytotoxicity, drug alone
Protocol: as §3, §4

[14] = system: MDA-MB-231 tumors; type: in vivo; settings: 5 days-on, 2 days-off
Protocol: (§8) Tumor growth was monitored by measuring tumor diameters with electronic calipers twice/week. Volumes were calculated using the formula (length)×(width)2/2. Mouse weights were measured twice/week. […] Drugs were given at 50 mg/kg by oral gavage on schedule 5-days-on and 2-days-off. At the endpoint, mice were euthanized and subjected to necropsy and organ collection. Tumor tissues were collected for RNA and protein analyses by snap-freezing in liquid nitrogen. Blood was collected for CBC by cardiac puncture.
Statistical significance of data comparisons were determined using the Student's unpaired t-test with a two-tailed distribution. Statistical significance was achieved when P<0.05. […]

[15] = system: MCF10A cells; assay: Cell cycle analysis by flow cytometry, MCF10A; type: cell-based, human; settings: MCF10A (p53wt)
Protocol: as §5, §7

[16] = system: MIAPACA-2 tumors; assay: MIAPACA-2 subcutaneous pancreatic cancer xenograft in mice; type: in vivo; settings: 50 mg/kg each drug, oral gavage, 5 days-on, 2 days-off
Protocol: as §8, with “calipers” for “calipers twice/week. Volumes were calculated using the formula (length)×(width)2/2. Mouse weights were measured”
Statistical significance was achieved when P<0.05.

[17] = molecular target: thymidylate synthase (TS) (Homo sapiens, UniProt P04818); settings: cited from earlier work
Chain of thymidylate synthase (TS) (P04818 whole entry, species assumed): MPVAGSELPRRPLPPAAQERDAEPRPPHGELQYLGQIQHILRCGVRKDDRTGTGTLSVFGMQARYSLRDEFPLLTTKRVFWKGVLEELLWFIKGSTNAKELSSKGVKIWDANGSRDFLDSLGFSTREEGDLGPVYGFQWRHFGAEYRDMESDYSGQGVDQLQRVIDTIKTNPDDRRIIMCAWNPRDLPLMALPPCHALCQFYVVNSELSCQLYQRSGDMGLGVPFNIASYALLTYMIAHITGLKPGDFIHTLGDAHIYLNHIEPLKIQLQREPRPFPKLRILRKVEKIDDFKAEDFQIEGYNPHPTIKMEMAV

[18] = Homo sapiens, MDA-MB-231, MDA-MB-231 (p53mt)

With `O=c1[nH]c(=O)n([C@H]2C[C@H](O)[C@@H](CO)O2)cc1F` [FdUrd, 5-fluoro-2′-deoxyuridine] the “γH2AX (DNA damage) response” value [1] was “induced transiently at 6 hrs of FdU exposure and declined by 48 hrs”, the “γH2AX (DNA damage) response” value [2] was “induced by 24 hrs and remained at high levels at 48 hrs” and the IC50 [3, 18] was 5.5 µM. For the same compound, the IC50 at 24 h [4] was 1.6 µM and the p53-p21 signaling response [5] was “induced p53-p21 signaling”.

For `C#Cc1cn([C@H]2C[C@H](O)[C@@H](CO)O2)c(=O)[nH]c1=O` [EdUrd, 5-ethynyl-2′-deoxy-uridine], the “γH2AX (DNA damage) response” value [1] was “transient increase of γH2AX levels”, the “γH2AX (DNA damage) response” value [2] was “continued accumulation of DNA damage signal” and the “Increase of EdU+ fraction after EdUrd-pulse” value ([6]; 24 hrs after 2 hr EdUrd pulse, flow cytometry) was ~25%.

In the case of `Cn1ncnc1[C@H]1c2n[nH]c(=O)c3cc(F)cc(c23)N[C@@H]1c1ccc(F)cc1` [talazoparib], the Cell cycle effect [7] is reported as “increased G2 fraction at the expense of S phase”, the “Concentration inhibiting PARylation activity in cells” value [8] is reported as 50 nM and the IC50 ([9]; Homo sapiens; read-out: IC50 for cancer cells, PARPi alone) is reported as 2 to 4 µM. For the same compound, the p53-p21 signaling response [5] was “p21 induction was observed only in p53wt cells”.

In the case of `O=C(c1cc(Cc2n[nH]c(=O)c3ccccc23)ccc1F)N1CCN(C(=O)C2CC2)CC1` [olaparib], the IC50 [10] is given as < 1 µM, the “Effect on removal of EdU” value [11] is given as “significantly delayed removal of EdU” and the Cell cycle effect [7] is given as “increased G2 fraction at the expense of S phase”. For the same compound, the p53-p21 signaling response [12] was “p21 was not regulated; also recorded: no response was observed”, the IC50 [3, 18] was 17.6 µM and the IC50 ([3]; MDA-MB-231 (p53mt)) was 17.4 µM. The IC50 [13] was 15.3 µM, the IC50 at 24 h [4] was 14.5 µM and the “Effect on removal of EdU” value ([6]; MDA-MB-231, 0.5 μM Olaparib after 2 hr EdU pulse) was “had no effect”. For the same compound, the “Median survival (time-to-arrive at 300 mm3 tumor size)” value ([14]; 50 mg/kg each drug, oral gavage) was 21 days, the Tumor growth ([14]; 50 mg/kg oral gavage) was “did not affect tumor growth” and the Cell cycle effect [15] was “increased G1-population”. For the same compound, the “Median survival (time-to-arrive at 500 mm3 tumor size)” value [16] was 21 days, the “Concentration inhibiting PARylation activity in cells” value [8] was 100 to 500 nM and 50 to 100 nM and the IC50 ([9]; Homo sapiens, read-out: IC50 for cancer cells, PARPi alone) was 16 to 24 µM. The “Concentration activating p53-p21 signaling” value ([5]; MCF10A) was 200 nM, the p53-p21 signaling response [5] was “induced p53-p21 signaling” and the “Concentration inducing p53-p21 signaling” value ([5]; MCF10A, 24 hrs) was 0.2 to 0.5 µM.

For `COc1ccc(C2=N[C@@H](c3ccc(Cl)cc3)[C@@H](c3ccc(Cl)cc3)N2C(=O)N2CCNC(=O)C2)c(OC(C)C)c1` [Nutlin-3A], the “γH2AX (DNA damage) response” value [1] was “did not induce DNA damage γH2AX marker”.

With `O=c1[nH]cc(F)c(=O)[nH]1` [5FU, 5-fluoro-uracil] the “Cooperation of 5FU with olaparib in cytotoxicity” value ([9]; olaparib 0.5 μM; tested cell lines) was “did not cooperate with olaparib; also recorded: does not enhance cytotoxicity”.

For `O=c1[nH]c(=O)n([C@H]2C[C@H](O)[C@@H](CO)O2)cc1C(F)(F)F` [TFT, 5-trifluoro-2′-deoxythymidine], the “Inhibition of TS” value [17] is given as 0.38 nM.
